In PMC9555310, “Novel inhibitors and activity-based probes targeting serine proteases” (Frontiers in Chemistry, 2022):

What was measured:
chymotrypsin = target: T1, chymotrypsin (Bos taurus, UniProt P00766); experiment: Off-target study, residual activity after 2 min pre-incubation: chymotrypsin; type: biochemical, bovine; details: 2 min incubation, PBS pH 7.4, 37°C; for off-target inhibition of chymotrypsin: residual activity vs DMF control, NAP830 at concentrations up to 50 μM
T1 construct: purchased Sigma-Aldrich (supplement); Calbiochem; host or cells: bovine pancreas
Description: (§1) FIGURE 5 Results of “off-target“ studies. NAP849 (A), NAP800 (B) and NAP830 (C) were tested against trypsin, chymotrypsin, and NE. Samples (approx. 0.01 μg) of each protease were incubated with the indicated concentrations of test compound for 2 min, in PBS, pH 7.4, at 37°C. (D) NAP858, NAP962 and NAP849 were tested against cathepsin B at the indicated concentrations in 0.1 M MES, pH 6.1, containing 1 mM EDTA, for 2 min, at 37°C. Aliquots (approx. 10 μL) of each incubation sample were then added to a fresh sample (990 μL) of PBS for the serine proteases and MES for cathepsin B, containing the appropriate substrate for each protease, to measure their residual activity. Controls incubations were performed in the absence of test compound, but in the presence of an appropriate volume of DMF vehicle used to prepare stock solutions of each inhibitor under study.
(§2) Two elements were investigated regarding possible “off-target” effects–determining the extent of cross-reactivity of each of the new putative ABPs between the various serine protease family members and assessing their collateral inhibitory action against another mechanistic class–the cysteine proteases, using cathepsin B (CTSB) as an exemplar.
(§3) For assays requiring a pre-incubation step enzyme and inhibitor in assay buffer were incubated together, at 37 °C, for 2 min, with gentle agitation. The reaction mixture was then aliquoted (50 μL) in duplicate on a black 96-well microtitre plate followed by addition of substrate to make a final concentration of 50 μM in a total volume of 100 μL. The fluorescence production was then measured as described for the previous procedure.
(§4) Figure ST1. Results of “off-target” studies. NAP559 and NAP533 were tested against chymotrypsin, and NE. Samples (approx. 0.01 mg) of each protease were incubated with the indicated concentrations of test compound for 2 min, in PBS, pH 7.4, at 37 °C. Aliquots (approx. 10 µL) of each incubation sample were then added to a fresh sample (990 µL) of PBS containing the appropriate substrate for each protease, to measure their residual activity. Controls incubations were performed in the absence of test compound, but in the presence of an appropriate volume of DMF vehicle used to prepare stock solutions of each inhibitor under study.

neutrophil elastase (NE) = target: T2, neutrophil elastase (NE) (Homo sapiens, UniProt P08246); experiment: Off-target study, residual activity after 2 min pre-incubation: NE; type: biochemical; details: 2 min incubation, PBS pH 7.4, 37°C; for off-target inhibition of neutrophil elastase: residual activity vs DMF control, NAP830 at concentrations up to 50 μM
T2 construct: purchased Calbiochem
T2 sequence (P08246 30-267): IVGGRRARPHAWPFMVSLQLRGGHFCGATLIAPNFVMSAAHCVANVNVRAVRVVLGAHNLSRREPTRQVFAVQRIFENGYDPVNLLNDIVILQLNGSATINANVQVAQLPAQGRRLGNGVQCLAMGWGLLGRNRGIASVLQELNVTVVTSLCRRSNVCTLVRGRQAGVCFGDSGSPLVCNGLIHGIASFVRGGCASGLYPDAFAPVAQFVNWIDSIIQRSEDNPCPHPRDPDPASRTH
Description: as §1, §2, §3, §4

trypsin = target: T3, trypsin (Sus scrofa, UniProt P00761); experiment: Off-target study, residual activity after 2 min pre-incubation: trypsin; type: biochemical, porcine; details: 2 min incubation, PBS pH 7.4, 37°C, residual activity vs DMF control
T3 construct: purchased Sigma-Aldrich; host or cells: porcine pancreas
Description: FIGURE 5 Results of “off-target“ studies. NAP849 (A), NAP800 (B) and NAP830 (C) were tested against trypsin, chymotrypsin, and NE. Samples (approx. 0.01 μg) of each protease were incubated with the indicated concentrations of test compound for 2 min, in PBS, pH 7.4, at 37°C. (D) NAP858, NAP962 and NAP849 were tested against cathepsin B at the indicated concentrations in 0.1 M MES, pH 6.1, containing 1 mM EDTA, for 2 min, at 37°C. Aliquots (approx. 10 μL) of each incubation sample were then added to a fresh sample (990 μL) of PBS for the serine proteases and MES for cathepsin B, containing the appropriate substrate for each protease, to measure their residual activity. Controls incubations were performed in the absence of test compound, but in the presence of an appropriate volume of DMF vehicle used to prepare stock solutions of each inhibitor under study. […]
For assays requiring a pre-incubation step enzyme and inhibitor in assay buffer were incubated together, at 37 °C, for 2 min, with gentle agitation. […] The fluorescence production was then measured as described for the previous procedure.

T3 sequence (P00761 9-231): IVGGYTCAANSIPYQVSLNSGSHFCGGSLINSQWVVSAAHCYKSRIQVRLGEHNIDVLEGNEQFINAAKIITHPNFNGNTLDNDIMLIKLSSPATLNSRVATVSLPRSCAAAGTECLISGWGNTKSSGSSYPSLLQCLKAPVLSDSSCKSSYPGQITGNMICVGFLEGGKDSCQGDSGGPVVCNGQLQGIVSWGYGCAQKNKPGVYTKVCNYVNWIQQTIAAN

## N=C(N)NCCCN(CC(=O)N1CCC[C@H]1C(=O)N(CC(N)=O)Cc1ccccc1)C(=O)ON1C(=O)CCC1=O [NAP559, Succinimidoyl-CO-NArg-D-Pro-NPhe-NH2]
chymotrypsin; highest concentration (50 μM)
  inhibition of chymotrypsin: < 5 % of control
Neutrophil elastase (NE); highest concentration (50 μM)
  inhibition of NE: < 5 % of control

## CC(C)N(CC(=O)NCC(=O)NCC(=O)NCCCOCCOCCOCCCNC(=O)CCCCC1SCC2NC(=O)NC21)C(=O)ON1C(=O)CCC1=O (stereo not drawn) [NAP800, Succinimidoyl-CO-NVal-Gly-Gly-PEG-Biotin]
chymotrypsin
  off-target inhibition of chymotrypsin: no “off-target” or collateral inhibition
trypsin
  off-target inhibition of trypsin: no “off-target” or collateral inhibition

## NCCCCN(CC(=O)NCC(=O)NCC(=O)NCCCOCCOCCOCCCNC(=O)CCCCC1SCC2NC(=O)NC21)C(=O)ON1C(=O)CCC1=O (stereo not drawn) [NAP830, Succinimidoyl-CO-NLys-Gly-Gly-PEG-Biotin]
chymotrypsin
  off-target inhibition of chymotrypsin: no “off-target” effects
Neutrophil elastase (NE)
  off-target inhibition of neutrophil elastase: no “off-target” effects

## O=C(CCCCC1SCC2NC(=O)NC21)NCCCOCCOCCOCCCNC(=O)CNC(=O)CNC(=O)CN(Cc1ccccc1)C(=O)ON1C(=O)CCC1=O (stereo not drawn) [NAP849, Succinimidoyl-CO-NPhe-Gly-Gly-PEG-Biotin]
Neutrophil elastase (NE)
  off-target inhibition of neutrophil elastase: complete absence of inhibition
trypsin
  off-target inhibition of trypsin: complete absence of inhibition
